Experimental data taken from article PMC12480552 (Scientific Reports, 2025).
Where “and” joins values, the source holds several entries; their conditions need not be identical. Identical values can stand only once. Like-named read-outs stand apart in the source and are kept apart here.

Assays:
[1] = 43 patients, phase 0 cohort, 200 or 300 mg once daily 4 days, cited from earlier work
[2] = oral dosing in NHPs; ref data not reported; cited from earlier work
[3] = MALDI MSI of brain sections, biodistribution in healthy nonhuman primates; details: for concentration at 4 h: male, rhesus monkey, oral, 6 mg/kg
Method: Animals were randomized using the GSK Randomization App 2.0, which is an internal software tool that uses the ‘sample’ function in R to randomly shuffle animal IDs, then assigns them to treatment groups to ensure unbiased allocation.
Before each dose, animals were lightly sedated with an intramuscular injection of ketamine (5–10 mg/kg), and a blood sample was drawn. […] NHPs were euthanized by administering an overdose of injected sodium pentobarbital IV (150–200 mg/kg) and confirmed by thoracotomy and exsanguination. Terminal plasma, cerebrospinal fluid, and brain tissue were collected at necropsy. […] The brain was cut into six roughly 1-cm thick coronal segments before snap-freezing by floating on liquid nitrogen. The right hemispheres of the four interior coronal brain segments were cryosectioned and analyzed by matrix-assisted laser desorption/ionization mass spectrometry imaging (MALDI MSI) to quantitatively assess the tissue distribution of the dosed compounds[40]–[43]. After MALDI MSI analysis, tissue sections were stained with hematoxylin and eosin (H&E) for correlation of ion images with underlying tissue histology.
For both the nonhuman primate (NHP) and mouse metastases model studies, brain tissue sections of 6-µm thickness were prepared on a Leica CM1950 cryostat (Leica Biosystems, Danvers, MA). For the NHP study, tissue sections were collected from four of the coronal brain segments from each animal. From each coronal segment, three tissue sections were collected for MALDI MSI, one section for hematoxylin and eosin (H&E) staining, and roughly 30 sections were collected into a pre-weighed vial for homogenization and liquid chromatography–tandem mass spectrometry (LC-MS/MS) bioanalysis. The three sections for MALDI MSI were thaw-mounted onto double-width indium tin oxide–coated slides (BigSlides; Bruker Daltonics, Billerica, MA) that had been pretreated with a poly-L-lysine solution to improve tissue adherence. The section for H&E staining was thaw-mounted onto a standard double-width glass microscope slide.
A gelatin cast of the mimetic model was prepared by pipetting a warmed (50 °C) 15% gelatin solution into a tissue microarray mold (Arraymold kit C, 4 mm, 15 cores; Arraymold, Ogden, UT). The gelatin cast was then frozen overnight at (− 20 °C). Bulk homogenate of control rat brain tissue was prepared using an Omni Bead Ruptor Elite bead mill homogenizer (Omni International, Kennesaw, GA). […] The gelatin cast was warmed to room temperature, and the spiked homogenates were pipetted into each of the individual wells. The cast and homogenate were then frozen by floating on liquid nitrogen and stored at − 80 °C. Cryosections (6-µm thickness) of the mimetic tissue model were then collected on the same slide as the sample tissue to be quantified.
Slides were coated with a TM Sprayer (HTX Technologies, Chapel Hill, NC) using the following parameters: 0.1-mL/min flowrate, 70 °C, 3-mm track spacing with CC pattern, and 8 passes.
MALDI MSI was performed on either a Bruker ScimaX (7T) or a Bruker SolariX (7T) FT-ICR mass spectrometer. […] Both narrowband and CASI windows were centered between parent and internal standard m/z. The small laser focus was used with 200 laser shots per position, and the laser power was adjusted in accordance with a quality control sample acquired just before initiating the imaging sequence.
After MALDI MSI acquisition, slides were immersed in 100% ethanol for 5 min to remove the MALDI matrix. Slides were then stained with H&E and digitally scanned. Ion images were loaded into flexImaging (Bruker Daltonics), the post–MALDI H&E image was coregistered, and key regions of interest (ROIs) for the tissue and mimetic model were drawn. […] This stipulation was implemented to avoid internal standard normalization of noise, which can introduce artifactual distributions.

NC(=O)c1cccc2cn(-c3ccc([C@@H]4CCCNC4)cc3)nc12 [Niraparib]
Kp, tumor ([1]; gadolinium-enhanced tissue): 7.5 | Kp, tumor ([1]; nonenhanced tissue): 4.2 | plasma time to peak drug concentration (Tmax) [2]: ≈ 4 h | MALDI MSI Brain sections, mean (SD) ([3]; healthy rhesus macaques, individual animals, oral once daily 5 days, niraparib 6 mg/kg (4 h after last dose), olaparib 10 mg/kg (2–2.5 h), total concentration, LOD 20 ng/g niraparib, 70 ng/g olaparib): 283 (69) ng/g and 684 (189) ng/g | concentration at 4 h ([3]; brain (coronal Region 1 sections), MALDI MSI Mean Conc. by brain region, NHP-1, Region 1, 3 sections, Fig. 1B): 268 ng/g | concentration at 4 h ([3]; brain (coronal Region 1 sections), MALDI MSI Mean Conc. by brain region, NHP-2, Region 1, 3 sections, Fig. 1B): 524 ng/g | concentration at 4 h ([3]; brain (coronal Region 2 sections), MALDI MSI Mean Conc. by brain region, NHP-1, Region 2, 3 sections, Fig. 1B): 287 ng/g | concentration at 4 h ([3]; brain (coronal Region 2 sections), MALDI MSI Mean Conc. by brain region, NHP-2, Region 2, 3 sections, Fig. 1B): 610 ng/g | concentration at 4 h ([3]; brain (coronal Region 3 sections), MALDI MSI Mean Conc. by brain region, NHP-1, Region 3, 3 sections, Fig. 1B): 217 ng/g | concentration at 4 h ([3]; brain (coronal Region 3 sections), MALDI MSI Mean Conc. by brain region, NHP-2, Region 3, 3 sections, Fig. 1B): 822 ng/g | concentration at 4 h ([3]; brain (coronal Region 4 sections), MALDI MSI Mean Conc. by brain region, NHP-1, Region 4, 3 sections, Fig. 1B): 362 ng/g | concentration at 4 h ([3]; brain (coronal Region 4 sections), MALDI MSI Mean Conc. by brain region, NHP-2, Region 4, 3 sections, Fig. 1B): 781 ng/g | concentration at 4 h ([3]; brain blood vessel, Niraparib Mean Conc. in histological ROI, NHP-1, Blood Vessel, Fig. 1D): 779 ng/g | concentration at 4 h ([3]; brain blood vessel, Niraparib Mean Conc. in histological ROI, NHP-2, Blood Vessel, Fig. 1D): 1210 ng/g | concentration at 4 h ([3]; brain gray matter, Niraparib Mean Conc. in histological ROI, NHP-1, Gray Matter, Fig. 1D): 292 ng/g | concentration at 4 h ([3]; brain gray matter, Niraparib Mean Conc. in histological ROI, NHP-2, Gray Matter, Fig. 1D): 743 ng/g | concentration at 4 h ([3]; brain parenchyma, mean unbound niraparib concentration in the brain parenchyma, healthy rhesus macaques, estimated from MALDI MSI): ~15 ng/g | concentration at 4 h ([3]; brain ventricle, Niraparib Mean Conc. in histological ROI, NHP-1, Ventricle, Fig. 1D): 3360 ng/g | concentration at 4 h ([3]; brain ventricle, Niraparib Mean Conc. in histological ROI, NHP-2, Ventricle, Fig. 1D): 4830 ng/g | concentration at 4 h ([3]; brain white matter, Niraparib Mean Conc. in histological ROI, NHP-1, White Matter, Fig. 1D): 177 ng/g | concentration at 4 h ([3]; brain white matter, Niraparib Mean Conc. in histological ROI, NHP-2, White Matter, Fig. 1D): 350 ng/g
